# Data: ChEMBL document CHEMBL5726441, “Isoindolone derivatives” (2017)
# Molecular target: Bromodomain-containing protein 4 (Homo sapiens, UniProt O60885)
# Experiment: TR-FRET Assay: Compound dilution series were prepared in DMSO via a 3-fold serial dilution from 2.5 mM to 42 nM. Compounds were then diluted 6:100 in assay buffer (20 mM Sodium Phosphate, pH 6.0, 50 mM NaCl, 1 mM EDTA, 0.01% Triton X-100, 1 mM DTT) to yield 3× working solutions. Six microliters (μL) of the working solution was then transferred to white, low-volume assay plates (Costar #3673). A 1.5× assay mixture containing His-tagged bromodomain, Europium-conjugated anti-His antibody (Invitrogen PV5596) and the Alexa-647-conjugated probe molecule was also prepared. Twelve μL of this solution were added to the assay plate to reach a final volume of 18 μL. The final concentration of 1× assay buffer contains 2% DMSO, 50 μM−0.85 nM compound, 8 nM bromodomain, 1 nM antibody and 100 or 30 nM probe (for BDI or BDII, respectively). After a one-hour incubation at room temperature, TR-FRET ratios were determined using an Envision multilabel plate reader (Ex 340, Em 495/520).TR-FRET data were normalized to the means of 24 no-compound controls (high) and 8 controls containing 1 μM un-labeled probe (low). Percent inhibition was plotted as a function of compound concentration and the data were fit with the 4 parameter logistic equation to obtain IC50s Inhibition constants (Ki) were calculated from the IC50s, probe Kd and probe concentration. Typical Z′ values were between 0.65 and 0.75. The minimum significant ratio was determined to evaluate assay reproducibility (Eastwood et al., (2006) J Biomol Screen, 11: 253-261).
row,Compound,Ki [µM]
1,Cc1[nH]c(-c2ccccc2CN2C(=O)c3ccccc3C2=O)c2c1C(=O)CCC2,6.22
2,Cc1[nH]c(-c2cccc3ccccc23)c2c1C(=O)CCC2,0.943
3,Cc1[nH]c(-c2ccccc2Oc2ccccc2)c2c1C(=O)CC(CC(C)C)C2 (stereo not drawn),3.62
